Like-named read-outs stand apart in the source and are kept apart here.
Columns and labels:
Lucilia cuprina = Lucilia cuprina test; format: in vivo; settings: 100 ppm, L1 larvae, after 2 days
Experimental: (§1) Solvent: dimethyl sulphoxide
To produce a suitable active compound preparation, 10 mg of active compound are mixed with 0.5 ml of dimethyl sulphoxide, and the concentrate is diluted with water to the desired concentration.
About 20 L1 larvae of the Australian sheep blowfly (Lucilia cuprina) are transferred into a test vessel containing minced horsemeat and the active compound preparation of the desired concentration.
After 2 days, the kill in % is determined. 100% means that all the larvae have been killed; 0% means that no larvae have been killed.

Ctenocephalides felis = Ctenocephalides felis oral test; format: in vivo; settings: 100 ppm in citrated cattle blood, adult cat fleas, after 2 days
Experimental: Ctenocephalides felis—Oral Test
as §1
To produce a suitable active compound preparation, 10 mg of active compound are mixed with 0.5 ml of dimethyl sulphoxide. Dilution with citrated cattle blood gives the desired concentration.
About 20 unfed adult cat fleas (Ctenocephalides felis) are placed into a chamber which is closed at the top and bottom with gauze. A metal cylinder whose bottom end is closed with parafilm is placed onto the chamber. The cylinder contains the blood/active compound preparation, which can be imbibed by the fleas through the parafilm membrane.
After 2 days, the kill in % is determined. 100% means that all of the fleas have been killed; 0% means that none of the fleas have been killed.

Tetranychus urticae = Tetranychus urticae spray test, OP-resistant; format: in vivo; settings: 500 g/ha, bean leaf discs, after 6 days
Experimental: Tetranychus urticae—Spray Test, OP-Resistant
(§2) Solvent: 78.0 parts by weight of acetone • • 1.5 parts by weight of dimethylformamide
(§3) Emulsifier: alkylaryl polyglycol ether
(§4) To produce a suitable active compound preparation, 1 part by weight of active compound is dissolved with the stated parts by weight of solvent and made up with water containing an emulsifier concentration of 1000 ppm until the desired concentration is attained. To produce further test concentrations, the preparation is diluted with emulsifier-containing water.
Discs of bean leaves (Phaseolus vulgaris) infested with all stages of the greenhouse red spider mite (Tetranychus urticae) are sprayed with an active compound preparation of the desired concentration.
After 6 days, the efficacy in % is determined. 100% means that all the spider mites have been killed; 0% means that no spider mites have been killed.

Phaedon cochleariae = Phaedon cochleariae spray test; format: in vivo; settings: 500 g/ha, larvae on Chinese cabbage leaf discs, after 7 days
Experimental: Phaedon cochleariae—Spray Test
as §2, §3, §4
After 7 days, the efficacy in % is determined. 100% means that all the beetle larvae have been killed; 0% means that no beetle larvae have been killed.

Myzus persicae = Myzus persicae spray test (Chinese cabbage leaf discs); format: in vivo; settings: after 6 days
Experimental: Myzus persicae—Spray Test
Solvent: 78 parts by weight of acetone • • 1.5 parts by weight of dimethylformamide
as §3, §4
Discs of Chinese cabbage leaves (Brassica pekinensis) infested by all stages of the green peach aphid (Myzus persicae) are sprayed with an active compound preparation of the desired concentration.
After 6 days, the efficacy in % is determined. 100% means that all the aphids have been killed; 0% means that no aphids have been killed.

[1] = log P determination by HPLC on reversed-phase C18 columns (OECD Guideline 117); format: physicochemical
Experimental: The log P values were determined in accordance with OECD Guideline 117 (EC Directive 92/69/EEC) by HPLC (high-performance liquid chromatography) using reversed-phase (RP) columns (C18), by the following methods:
[a] The LC-MS determination in the acidic range is effected at pH 2.7 with 0.1% aqueous formic acid and acetonitrile (contains 0.1% formic acid) as eluents; linear gradient from 10% acetonitrile to 95% acetonitrile.
[b] LC-MS determination in the neutral range is effected at pH 7.8 with 0.001 molar aqueous ammonium hydrogencarbonate solution and acetonitrile as eluents; linear gradient from 10% acetonitrile to 95% acetonitrile.

[2] = reversed-phase C18 HPLC column, acidic range, pH 2.7, 0.1% aqueous formic acid / acetonitrile, read-out: logP value (HCOOH)
[3] = reversed-phase C18 HPLC column, neutral range, pH 7.8, 0.001 molar aqueous ammonium hydrogencarbonate / acetonitrile, read-out: LogP value (neutral)

Question: For N#C/N=c1\ccccn1-c1ccc(C(F)(F)F)nc1 [Example 1, [1-[6-Trifluoromethylpyridin-3-yl]-2(1H)-pyridinylidene]cyanamide], which “efficacy (kill)” value (Lucilia cuprina) is on record?
Answer: 100%

Question: And the “efficacy (kill)” value (Ctenocephalides felis)?
Answer: 95%

Question: And the efficacy (Tetranychus urticae)?
Answer: 100%

Question: What about the efficacy (Phaedon cochleariae) of the same molecule?
Answer: 100%

Question: And the efficacy (Myzus persicae; 500 g/ha)?
Answer: 100%

Question: With N#C/N=c1\ccccn1-c1ccc(Br)nc1 [Example 2, [1-[6-Bromopyridin-3-yl]-2(1H)-pyridinylidene]cyanamide] as the molecule, how does the chromatographic logP [1, 2] read?
Answer: 1.07

Question: And the efficacy (Myzus persicae; 100 g/ha)?
Answer: 90%

Question: With Cc1ccc(-n2cccc/c2=N\C#N)cn1 [Example 3, [1-[6-Methylpyridin-3-yl]-2(1H)-pyridinylidene]cyanamide] as the molecule, how does the chromatographic logP [1, 2] read?
Answer: 0.46

Question: And the efficacy (Phaedon cochleariae)?
Answer: 100%

Question: And the efficacy (Myzus persicae; 100 g/ha)?
Answer: 90%

Question: For O=C(/C=C1\C=CC=CN1c1ccc(C(F)(F)F)nc1)C(F)(F)F [Example 4, (3E)-3-[1-(6-Trifluoromethyl-3-pyridinyl)-2(1H)-pyridinylidene]-1,1,1-trifluoro-2-propanone], which chromatographic logP [1, 2] is on record?
Answer: 2.2

Question: And the “efficacy (kill)” value (Lucilia cuprina)?
Answer: 100%

Question: And the efficacy (Myzus persicae; 500 g/ha)?
Answer: 90%

Question: What does the source list for O=C(/N=c1\ccccn1-c1ccc(C(F)(F)F)nc1)C(F)(F)F [Example 7]?
Answer: chromatographic logP [1, 2]: 2.19; efficacy (kill) (Lucilia cuprina): 95%; efficacy (Myzus persicae; 500 g/ha): 100%

Question: Which chromatographic logP [1, 2] does the source give for N#C/N=c1\ccccn1-c1ccc(F)nc1 [Example 8, [1-[6-Fluoropyridin-3-yl]-2(1H)-pyridinylidene]cyanamide] here?
Answer: 0.7

Question: And the efficacy (Phaedon cochleariae)?
Answer: 100%

Question: What about the efficacy (Myzus persicae; 500 g/ha) of the same molecule?
Answer: 90%

Question: Which chromatographic logP [1, 3] does the source give for N#C/N=c1\ccccn1-c1ccc(-n2cnc(Cl)n2)nc1 [Example 24, [1-[6-(3-Chloro-1,2,4-triazol-1-yl)pyridin-3-yl]-2-(1H)-pyridinylidene]cyanamide] here?
Answer: 1.39

Question: Which chromatographic logP [1, 2] does the source give for O=c1ccccn1-c1ccc(C(F)(F)F)nc1 [IV-1, 6′-Trifluoromethyl-[1(2H),3′-bipyridin]-2-one] here?
Answer: 1.26

Question: For O=c1ccccn1-c1ccc(Br)nc1 [IV-2, 6′-Bromo-[1(2H), 3′-bipyridin]-2-one], which chromatographic logP [1, 2] is on record?
Answer: 0.95

Question: With N#Cc1cccn(-c2ccc(Cl)nc2)c1=O [IV-4, 1,2-Dihydro-2-oxo-1-(6-chloropyridin-3-yl)-3-pyridinecarbonitrile] as the molecule, how does the chromatographic logP [1, 2] read?
Answer: 1

Question: Which chromatographic logP [1, 2] does the source give for O=c1ccccn1-c1ccc(Cl)nc1 [IV-14, 6′-chloro-[1(2H),3′-bipyridin]-2-one] here?
Answer: 0.67

Question: For O=c1ccccn1-c1ccc(-n2cnc(Cl)n2)nc1 [IV-29, 6′-(3-Chloro-1,2,4-triazol-1-yl)-[1(2H), 3′-bipyridin]-2-one], which chromatographic logP [1, 2] is on record?
Answer: 1.23

Question: Which chromatographic logP ([1]; acidic range, pH 2.7, 0.1% aqueous formic acid / acetonitrile, read-out: logP value (HCOOH)) does the source give for O=c1ccccn1-c1ccc(C(F)(F)C(F)(F)C(F)(F)F)nc1 [IV-31, 6′-Heptafluoropropyl-[1(2H),3′-bipyridin]-2-one] here?
Answer: 2.26

Question: Which chromatographic logP [1, 2] does the source give for O=c1ccccn1-c1ccc(C(F)(C(F)(F)F)C(F)(F)F)nc1 [IV-32, 6′-(1,1,1,2,3,3,3-Heptafluoropropyl)-[1(2H), 3′-bipyridin]-2-one] here?
Answer: 2.4

Question: For O=c1ccccn1-c1ccc(C(F)(F)C(F)(F)F)nc1 [IV-33, 6′-Pentafluoroethyl-[1(2H), 3′-bipyridin]-2-one], which chromatographic logP [1, 2] is on record?
Answer: 1.94

Question: Which chromatographic logP [1, 2] does the source give for Cc1ccc(-n2ccccc2=S)cn1 [VI-1, 6′-Methyl-[1(2H),3′-bipyridine]-2-thione] here?
Answer: 0.51

Question: For FC(F)(F)c1ccc(-n2ccccc2=S)cn1 [VI-2, 6′-trifluoromethyl-[1(2H),3′-bipyridine]-2-thione], which chromatographic logP [1, 2] is on record?
Answer: 1.7

Question: Which chromatographic logP [1, 3] does the source give for S=c1ccccn1-c1ccc(-n2cnc(Cl)n2)nc1 [VI-5, 6′-(3-Chloro-1,2,4-triazol-1-yl)-[1(2H), 3′-bipyridine]-2-thione] here?
Answer: 1.58

Question: For “[1-[[6-(3-Trifluoromethylpyrazol-1-yl)pyridin-3-yl]-2-(1H)-pyridinylidene]cyanamide [Example 25]”, which “LogP value (neutral)” value ([1]; pH 7.8) is on record?
Answer: 2.23

— US10239859B2, “Nitrogen-containing heterocycles as pesticides” (Bayer CropScience Aktiengesellschaft, priority 2015, dated 2019)
